In assay [1] the target is Serine/threonine-protein kinase PAK 1 (Homo sapiens, UniProt Q13153). Put plainly: Inhibition of TEV protease fused 6His-tagged PAK1 KD (249 to 545 residues) (unknown origin) expressed in Sf21 cells by Z-LYTE biochemical assay.
Assay [2] addresses T1, Serine/threonine-protein kinase PAK 4 (Homo sapiens, UniProt O96013). Put plainly: Inhibition of PAK4 (unknown origin) by Z-LYTE biochemical assay.
Target sequence in this assay (O96013 whole entry): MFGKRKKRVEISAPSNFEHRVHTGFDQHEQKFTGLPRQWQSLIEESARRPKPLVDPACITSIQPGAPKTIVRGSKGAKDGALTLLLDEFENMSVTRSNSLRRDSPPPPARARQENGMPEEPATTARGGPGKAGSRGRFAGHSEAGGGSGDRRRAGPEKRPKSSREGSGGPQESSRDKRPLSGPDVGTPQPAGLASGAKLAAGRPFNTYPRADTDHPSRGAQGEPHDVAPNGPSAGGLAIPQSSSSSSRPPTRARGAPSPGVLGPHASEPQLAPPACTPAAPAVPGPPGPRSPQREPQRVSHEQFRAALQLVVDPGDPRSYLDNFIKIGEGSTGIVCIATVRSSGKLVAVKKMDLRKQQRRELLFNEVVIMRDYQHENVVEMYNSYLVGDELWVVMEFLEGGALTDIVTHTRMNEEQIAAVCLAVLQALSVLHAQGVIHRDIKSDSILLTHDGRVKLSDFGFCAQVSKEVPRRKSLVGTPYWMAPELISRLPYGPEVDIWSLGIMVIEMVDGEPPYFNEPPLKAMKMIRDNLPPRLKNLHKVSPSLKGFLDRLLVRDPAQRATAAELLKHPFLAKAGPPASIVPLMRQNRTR
Assay [3] is described as follows: Induction of cell cycle arrest in mouse SC4 [Mouse schwannoma] cells assessed as accumulation of cells at G1 phase at 1 uM measured upto 96 hrs by propidium iodide staining based flow cytometeric analysis (reference value: 50%). It is filed as functional. A general note: In flow cytometry, cells or beads pass a laser one at a time.
The test system of assay [4] is SC4. Description: Antiproliferative activity against mouse SC4 [Mouse schwannoma] cells assessed as reduction in cell viability at 1 uM measured upto 96 hrs by coulter counter analysis. It is filed as functional, cell-based.
In assay [5] the target is T1, Serine/threonine-protein kinase PAK 4. The note with it: dose 100.0 nM.
Target sequence in this assay (O96013 whole entry, looked up): as the sequence (O96013 whole entry) above
Description: Inhibition of PAK4 (unknown origin) at 100 nM by Z-LYTE biochemical assay relative to control
The target in assay [6] is Proto-oncogene tyrosine-protein kinase receptor Ret (Homo sapiens) (UniProt P07949). The note with it: dose 100.0 nM.
Chain of Proto-oncogene tyrosine-protein kinase receptor Ret (Homo sapiens) (P07949 whole entry): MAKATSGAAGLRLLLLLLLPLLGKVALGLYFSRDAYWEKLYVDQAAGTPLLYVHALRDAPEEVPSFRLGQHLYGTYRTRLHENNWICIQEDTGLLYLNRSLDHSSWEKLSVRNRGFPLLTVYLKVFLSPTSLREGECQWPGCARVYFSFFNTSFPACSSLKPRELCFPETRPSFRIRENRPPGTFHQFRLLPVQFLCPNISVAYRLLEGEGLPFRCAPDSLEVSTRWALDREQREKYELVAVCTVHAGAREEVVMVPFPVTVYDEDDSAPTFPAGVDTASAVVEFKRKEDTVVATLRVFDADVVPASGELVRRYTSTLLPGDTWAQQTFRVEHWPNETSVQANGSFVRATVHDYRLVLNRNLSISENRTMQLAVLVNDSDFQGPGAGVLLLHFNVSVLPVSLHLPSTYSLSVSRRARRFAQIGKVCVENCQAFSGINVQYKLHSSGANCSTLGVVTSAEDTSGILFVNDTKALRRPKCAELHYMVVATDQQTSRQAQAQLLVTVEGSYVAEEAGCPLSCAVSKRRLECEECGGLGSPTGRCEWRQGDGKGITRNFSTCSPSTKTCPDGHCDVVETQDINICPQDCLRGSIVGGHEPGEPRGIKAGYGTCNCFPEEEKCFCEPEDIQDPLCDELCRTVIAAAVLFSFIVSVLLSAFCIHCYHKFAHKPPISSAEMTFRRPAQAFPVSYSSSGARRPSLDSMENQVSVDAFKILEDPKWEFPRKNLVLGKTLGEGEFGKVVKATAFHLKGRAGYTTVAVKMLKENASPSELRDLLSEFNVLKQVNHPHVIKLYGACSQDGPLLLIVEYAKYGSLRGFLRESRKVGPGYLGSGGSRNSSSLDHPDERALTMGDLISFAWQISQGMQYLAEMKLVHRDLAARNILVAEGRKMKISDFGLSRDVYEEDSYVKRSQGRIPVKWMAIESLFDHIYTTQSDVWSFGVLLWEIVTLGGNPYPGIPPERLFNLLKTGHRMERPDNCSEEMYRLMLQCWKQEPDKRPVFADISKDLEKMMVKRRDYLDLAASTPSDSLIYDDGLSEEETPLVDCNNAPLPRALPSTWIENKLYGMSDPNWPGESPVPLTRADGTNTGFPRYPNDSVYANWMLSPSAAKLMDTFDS
Description: Inhibition of RET (unknown origin) at 100 nM by Z-LYTE biochemical assay relative to control
Assay [7] deals with SC4. Put plainly: Antitumor activity against Nf2 knockout mouse SC4 [Mouse schwannoma] cells harbouring pLuc-mCherry implanted in NOD/SCID mouse assessed as reduction in tumor weight at 100 mg/kg, po qd administered for 14 days. In kind it is functional, organism-based. The note with it: time 14.0 day.
The nature of assay [8]: Induction of cell cycle arrest in mouse SC4 [Mouse schwannoma] cells assessed as accumulation of cells at G2/M phase at 1 uM measured upto 96 hrs by propidium iodide staining based flow cytometeric analysis (reference value: 22%). In kind it is functional.
In assay [9] the target is Tyrosine-protein kinase Yes (Homo sapiens) (UniProt P07947). The note with it: dose 100.0 nM.
Description: Inhibition of YES1 (unknown origin) at 100 nM by Z-LYTE biochemical assay relative to control
A short description of assay [10]: Induction of cell cycle arrest in mouse SC4 [Mouse schwannoma] cells assessed as accumulation of cells at S phase at 1 uM measured upto 96 hrs by propidium iodide staining based flow cytometeric analysis (reference value: 27%). It is filed as functional.
Assay [11] addresses Macrophage colony-stimulating factor 1 receptor (Homo sapiens) (UniProt P07333). The note with it: dose 100.0 nM.
Description: Inhibition of CSF1R (unknown origin) at 100 nM by Z-LYTE biochemical assay relative to control
Assay [12] concerns the target Serine/threonine-protein kinase PAK 2 (Homo sapiens) (UniProt Q13177). The note with it: dose 100.0 nM.
Description: Inhibition of PAK2 (unknown origin) at 100 nM by Z-LYTE biochemical assay relative to control
Assay [13] deals with Serine/threonine-protein kinase PAK 6 (Homo sapiens) (UniProt Q9NQU5). The note with it: dose 100.0 nM.
Description: Inhibition of PAK6 (unknown origin) at 100 nM by Z-LYTE biochemical assay relative to control
Assay [14] relates to SC4. Put plainly: Downregulation of CSF1R expression in mouse SC4 [Mouse schwannoma] cells by Western blotting analysis. It is filed as functional, cell-based.
Assay [15] deals with SC4. Put plainly: Downregulation of TEK1 expression in mouse SC4 [Mouse schwannoma] cells by Western blotting analysis. In kind it is functional, cell-based.
Assay [16] addresses Serine/threonine-protein kinase PAK 1 (Mus musculus, UniProt O88643).
Description: Inhibition of PAK1 in mouse SC4 [Mouse schwannoma] cells assessed as reduction in p-PAK1 at serine 144 residue at 1 to 5 uM incubated for 2 hrs by Western blotting analysis
Assay [17] can be described thus: Inhibition of PAK1 V342F mutant (unknown origin) in presence of ATP by KinaseGlo assay. For orientation: Kinase-Glo reads ATP consumption through a luciferase reaction.
Assay [18] concerns SC4. Put plainly: Downregulation of RET expression in mouse SC4 [Mouse schwannoma] cells by Western blotting analysis. In kind it is functional, cell-based. Background: A western blot detects proteins with antibodies after separation by electrophoresis.
The target in assay [19] is Angiopoietin-1 receptor (Homo sapiens) (UniProt Q02763). The note with it: dose 100.0 nM.
Chain of Angiopoietin-1 receptor (Homo sapiens) (Q02763 whole entry): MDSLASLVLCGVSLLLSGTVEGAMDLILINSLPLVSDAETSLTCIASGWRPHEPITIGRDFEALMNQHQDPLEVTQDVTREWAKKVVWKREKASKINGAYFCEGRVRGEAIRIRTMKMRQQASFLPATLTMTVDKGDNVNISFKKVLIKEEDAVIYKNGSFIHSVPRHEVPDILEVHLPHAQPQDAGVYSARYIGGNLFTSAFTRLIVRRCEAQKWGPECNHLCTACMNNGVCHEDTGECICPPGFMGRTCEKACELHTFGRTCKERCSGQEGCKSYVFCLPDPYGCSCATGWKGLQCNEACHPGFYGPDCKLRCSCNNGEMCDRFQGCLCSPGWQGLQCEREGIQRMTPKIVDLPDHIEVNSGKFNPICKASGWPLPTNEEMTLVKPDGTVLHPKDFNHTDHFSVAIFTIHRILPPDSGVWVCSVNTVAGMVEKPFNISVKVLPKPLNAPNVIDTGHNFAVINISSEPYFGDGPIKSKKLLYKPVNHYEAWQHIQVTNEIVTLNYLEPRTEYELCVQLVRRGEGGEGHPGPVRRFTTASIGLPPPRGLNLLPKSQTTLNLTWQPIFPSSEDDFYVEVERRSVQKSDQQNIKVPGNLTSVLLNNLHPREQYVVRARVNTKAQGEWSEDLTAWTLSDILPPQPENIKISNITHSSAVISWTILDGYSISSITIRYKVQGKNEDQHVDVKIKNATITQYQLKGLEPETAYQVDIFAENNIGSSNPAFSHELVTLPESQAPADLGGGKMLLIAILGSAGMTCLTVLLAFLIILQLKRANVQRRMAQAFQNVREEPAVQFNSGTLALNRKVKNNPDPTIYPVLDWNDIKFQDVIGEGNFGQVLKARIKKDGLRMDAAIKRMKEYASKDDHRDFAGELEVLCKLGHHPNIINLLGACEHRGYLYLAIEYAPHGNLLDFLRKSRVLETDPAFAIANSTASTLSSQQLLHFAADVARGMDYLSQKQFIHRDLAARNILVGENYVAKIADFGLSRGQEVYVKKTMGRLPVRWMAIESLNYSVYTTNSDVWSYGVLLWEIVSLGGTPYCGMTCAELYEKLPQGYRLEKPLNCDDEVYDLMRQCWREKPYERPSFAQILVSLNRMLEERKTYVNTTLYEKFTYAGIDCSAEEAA
Description: Inhibition of TEK (unknown origin) at 100 nM by Z-LYTE biochemical assay relative to control
Assay [20] concerns SC4. Put plainly: Antitumor activity against Nf2 knockout mouse SC4 [Mouse schwannoma] cells harbouring pLuc-mCherry implanted in NOD/SCID mouse assessed as reduction in tumor growth at 100 mg/kg, po qd administered for 14 days by bioluminescence imaging analysis. In kind it is functional, organism-based. The note with it: time 14.0 day.
In assay [21] the test system is SC4. Put plainly: Downregulation of YES1 expression in mouse SC4 [Mouse schwannoma] cells by Western blotting analysis. In kind it is functional, cell-based.
The test system of assay [22] is SC4. Description: Induction of cell cycle arrest in mouse SC4 [Mouse schwannoma] cells assessed as accumulation of cells at sub-G1 phase at 1 uM measured upto 96 hrs by propidium iodide staining based flow cytometeric analysis. It is filed as functional.
Assay [23] can be described thus: Inhibition of PAK1 V342Y mutant (unknown origin) in presence of ATP by KinaseGlo assay.
The target in assay [24] is Serine/threonine-protein kinase PAK 5 (Homo sapiens) (UniProt Q9P286). The note with it: dose 100.0 nM.
Chain of Serine/threonine-protein kinase PAK 5 (Homo sapiens) (Q9P286 whole entry, looked up): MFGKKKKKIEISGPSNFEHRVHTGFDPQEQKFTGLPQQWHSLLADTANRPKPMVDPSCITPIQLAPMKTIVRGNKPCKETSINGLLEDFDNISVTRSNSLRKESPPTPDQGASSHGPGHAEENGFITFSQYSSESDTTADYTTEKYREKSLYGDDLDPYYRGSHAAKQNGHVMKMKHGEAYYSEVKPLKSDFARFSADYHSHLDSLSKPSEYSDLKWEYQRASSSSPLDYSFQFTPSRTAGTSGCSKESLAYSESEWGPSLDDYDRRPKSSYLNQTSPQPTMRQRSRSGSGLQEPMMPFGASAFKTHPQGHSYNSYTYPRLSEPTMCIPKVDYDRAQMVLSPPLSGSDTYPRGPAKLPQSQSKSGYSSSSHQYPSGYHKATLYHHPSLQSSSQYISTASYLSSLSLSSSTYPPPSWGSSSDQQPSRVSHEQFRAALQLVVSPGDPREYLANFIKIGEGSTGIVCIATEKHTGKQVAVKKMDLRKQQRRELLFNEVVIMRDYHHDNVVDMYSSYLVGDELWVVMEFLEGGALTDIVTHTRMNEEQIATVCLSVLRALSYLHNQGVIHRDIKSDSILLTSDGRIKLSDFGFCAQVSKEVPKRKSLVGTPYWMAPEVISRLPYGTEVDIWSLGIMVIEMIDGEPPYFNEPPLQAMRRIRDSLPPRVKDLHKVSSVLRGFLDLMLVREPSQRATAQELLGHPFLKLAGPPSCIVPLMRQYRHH
Description: Inhibition of PAK7 (unknown origin) at 100 nM by Z-LYTE biochemical assay relative to control

Active and inactive are the calls of the source. The calls are words filed in the database; no cut-off is given here.

A word on the IC50: it is the concentration that inhibits the measured activity by half. Usually inhibition stands for the share of the control response that was lost under treatment. Higher therefore signals a strong effect.

Chain of Serine/threonine-protein kinase PAK 1 (Homo sapiens, UniProt Q13153) (Q13153 whole entry, the tested form may be a part): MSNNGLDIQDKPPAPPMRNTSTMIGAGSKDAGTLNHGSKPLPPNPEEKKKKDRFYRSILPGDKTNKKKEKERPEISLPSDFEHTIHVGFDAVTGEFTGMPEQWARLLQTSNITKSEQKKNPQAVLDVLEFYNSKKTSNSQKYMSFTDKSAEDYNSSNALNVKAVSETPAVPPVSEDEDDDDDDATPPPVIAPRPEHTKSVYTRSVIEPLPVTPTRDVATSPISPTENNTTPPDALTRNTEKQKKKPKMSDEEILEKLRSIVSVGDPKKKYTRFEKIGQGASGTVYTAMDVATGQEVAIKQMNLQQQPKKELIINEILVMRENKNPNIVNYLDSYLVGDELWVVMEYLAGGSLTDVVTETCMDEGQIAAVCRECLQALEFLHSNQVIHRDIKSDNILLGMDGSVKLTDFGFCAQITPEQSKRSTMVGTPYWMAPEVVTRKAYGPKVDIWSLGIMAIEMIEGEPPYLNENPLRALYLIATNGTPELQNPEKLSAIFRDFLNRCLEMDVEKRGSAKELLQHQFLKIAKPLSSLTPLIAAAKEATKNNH
Chain of Serine/threonine-protein kinase PAK 2 (Homo sapiens) (Q13177 whole entry): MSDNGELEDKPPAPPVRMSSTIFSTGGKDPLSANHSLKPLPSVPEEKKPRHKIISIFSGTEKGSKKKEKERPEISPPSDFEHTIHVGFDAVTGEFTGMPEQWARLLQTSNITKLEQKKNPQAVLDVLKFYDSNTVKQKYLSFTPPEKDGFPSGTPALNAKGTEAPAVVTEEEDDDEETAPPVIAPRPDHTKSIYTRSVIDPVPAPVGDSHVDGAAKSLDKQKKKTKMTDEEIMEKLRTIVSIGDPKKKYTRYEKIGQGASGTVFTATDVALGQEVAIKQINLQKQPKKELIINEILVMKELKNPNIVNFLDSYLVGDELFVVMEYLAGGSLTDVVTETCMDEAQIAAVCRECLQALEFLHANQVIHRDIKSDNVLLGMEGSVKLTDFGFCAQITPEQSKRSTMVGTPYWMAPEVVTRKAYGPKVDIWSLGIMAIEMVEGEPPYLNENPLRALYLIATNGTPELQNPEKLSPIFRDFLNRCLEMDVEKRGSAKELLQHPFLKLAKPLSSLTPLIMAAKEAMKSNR

Take `CCn1c(=O)c(-c2ccc(Cl)cc2Cl)cc2cnc(Nc3ccc(N4CCN(C)CC4)cc3)nc21`: the IC50 stood at 20 nM in [1] and 559 nM in assay [2].
For `CN1CCN(c2ccc(Nc3ncc4ccc(=O)n(C5CCCC5)c4n3)cc2)CC1`, the IC50 in assay [1] was 483 nM; in assay [2], 580 nM.
With `CCn1c(=O)c(-c2ccc(-c3cncs3)cc2Cl)cc2cnc(Nc3ccc(N4CCN(C)CC4)cc3)nc21.Cl`, the Activity in [3] was 74%; in assay [8] it was 11%; in assay [10] it was 12%. For the same compound, the outcome in the assay on SC4 [4], with SC4 [7], in the assay with SC4 [14], with SC4 [15], in the assay on SC4 [18] and in the assay with SC4 [20] was Active. Moreover, the outcome in the assay with SC4 [21] was Active. Also, the inhibition in [5] stood at 0%; in assay [6], 82%; in [9] it was 87%; in [11] it was 91%; in assay [12] it was 93%; in assay [13], 23%. In addition, the inhibition in assay [19] stood at 87%; in [24], 8%. In addition, the half-maximal inhibitory concentration (IC50) was above 10000 nM in [2], 70 nM in assay [16], above 3000 nM in assay [17] and above 2000 nM in assay [23]. Further, in the assay on SC4 [22], the outcome was inactive.
With `Cc1nc(Nc2n[nH]c3c2CN(C(=O)N[C@H](CN(C)C)c2ccccc2)C3(C)C)c2sccc2n1`, in the assay with SC4 [4], the outcome was Active.

The record behind these values is ChEMBL document CHEMBL5653616, “FRAX597, a small molecule inhibitor of the p21-activated kinases, inhibits tumorigenesis of neurofibromatosis type 2 (NF2)-associated Schwannomas” (J Biol Chem, 2013).
